What was measured:
[1] = test system: virulent influenza virus strain; parameters: species or system mice; details: mouse, in vivo
influenza virus = assay: In vitro anti-viral assay in A549 cells (plaque assay, viral mRNA); assay type: cell-based
PI3K p110β = molecular target: T1, PI3K p110β (Homo sapiens, UniProt P42338); assay: PI3K isoform inhibition in vitro, p110β; assay type: biochemical; details: class I PI3K isoform β
T1 construct: purchased Reaction Biology Corporation (RBC) Malvern, Pa
Excerpt: (§1) A PI3K assay can be used to evaluate the activity of the prototype molecule. Reaction Biology Corporation (RBC) Malvern, Pa. offers Class I PI3Ks (PI3Kα, PI3Kβ, PI3Kγ, and PI3Kδ). The PIP3 product is detected by displacement of biotin-PIP3 from an energy transfer complex consisting of Europium labeled anti-GST monoclonal antibody, a GST-tagged pleckstrin homology (PH) domain, biotinylated PIP3 and Streptavidin-Allophycocyanin (APC). Excitation of Europium in the complex results in an energy transfer to the APC and a fluorescent emission at 665 nm. The PIP3 product formed displaces biotin-PIP3 from the complex resulting in a loss of energy transfer and thus a decrease in signal.

PI3K p110δ = molecular target: T2, PI3K p110δ (Homo sapiens, UniProt O00329); assay: PI3K isoform inhibition in vitro, p110δ; assay type: biochemical; details: class I PI3K isoform δ
T2 construct: purchased Reaction Biology Corporation (RBC) Malvern, Pa
Excerpt: as §1

PI3K p110α = molecular target: T3, PI3K p110α (Homo sapiens, UniProt P42336); assay: PI3K isoform inhibition in vitro, p110α; assay type: biochemical; details: class I PI3K isoform α
T3 construct: purchased Reaction Biology Corporation (RBC) Malvern, Pa
Excerpt: as §1

PI3K p110γ = molecular target: T4, PI3K p110γ (Homo sapiens, UniProt P48736); assay: PI3K isoform inhibition in vitro, p110γ; assay type: biochemical; details: class I PI3K isoform γ
T4 construct: purchased Reaction Biology Corporation (RBC) Malvern, Pa
Excerpt: as §1

T4 sequence (P48736 whole entry, canonical isoform): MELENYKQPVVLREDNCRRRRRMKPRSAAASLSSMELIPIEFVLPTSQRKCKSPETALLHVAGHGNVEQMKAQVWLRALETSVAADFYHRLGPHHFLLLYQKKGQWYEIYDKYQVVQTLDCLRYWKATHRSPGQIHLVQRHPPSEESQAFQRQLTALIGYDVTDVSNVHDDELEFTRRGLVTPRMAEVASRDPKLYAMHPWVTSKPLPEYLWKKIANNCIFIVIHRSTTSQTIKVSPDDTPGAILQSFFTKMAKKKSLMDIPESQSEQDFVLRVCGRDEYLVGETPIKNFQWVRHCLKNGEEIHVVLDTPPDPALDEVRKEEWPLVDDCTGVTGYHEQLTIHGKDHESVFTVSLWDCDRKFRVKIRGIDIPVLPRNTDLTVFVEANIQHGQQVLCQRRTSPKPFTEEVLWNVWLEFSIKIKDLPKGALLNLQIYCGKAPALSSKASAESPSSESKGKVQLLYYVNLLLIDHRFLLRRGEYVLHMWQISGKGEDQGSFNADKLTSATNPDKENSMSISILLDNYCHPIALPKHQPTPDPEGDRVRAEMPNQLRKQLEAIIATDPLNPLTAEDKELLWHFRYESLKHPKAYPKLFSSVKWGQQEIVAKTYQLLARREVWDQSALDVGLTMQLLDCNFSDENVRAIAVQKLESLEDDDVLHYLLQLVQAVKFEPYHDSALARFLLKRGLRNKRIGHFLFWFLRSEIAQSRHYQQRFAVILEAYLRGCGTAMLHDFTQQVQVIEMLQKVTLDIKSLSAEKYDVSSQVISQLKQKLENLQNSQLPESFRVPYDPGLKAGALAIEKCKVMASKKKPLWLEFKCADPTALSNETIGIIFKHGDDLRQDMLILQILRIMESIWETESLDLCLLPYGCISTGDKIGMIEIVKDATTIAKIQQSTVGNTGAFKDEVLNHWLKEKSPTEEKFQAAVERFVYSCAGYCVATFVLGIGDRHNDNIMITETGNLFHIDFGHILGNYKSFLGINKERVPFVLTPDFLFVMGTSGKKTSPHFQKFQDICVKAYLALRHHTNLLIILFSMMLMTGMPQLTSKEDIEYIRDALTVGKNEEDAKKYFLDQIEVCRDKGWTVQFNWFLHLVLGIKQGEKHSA
T1 sequence (P42338 whole entry, canonical isoform): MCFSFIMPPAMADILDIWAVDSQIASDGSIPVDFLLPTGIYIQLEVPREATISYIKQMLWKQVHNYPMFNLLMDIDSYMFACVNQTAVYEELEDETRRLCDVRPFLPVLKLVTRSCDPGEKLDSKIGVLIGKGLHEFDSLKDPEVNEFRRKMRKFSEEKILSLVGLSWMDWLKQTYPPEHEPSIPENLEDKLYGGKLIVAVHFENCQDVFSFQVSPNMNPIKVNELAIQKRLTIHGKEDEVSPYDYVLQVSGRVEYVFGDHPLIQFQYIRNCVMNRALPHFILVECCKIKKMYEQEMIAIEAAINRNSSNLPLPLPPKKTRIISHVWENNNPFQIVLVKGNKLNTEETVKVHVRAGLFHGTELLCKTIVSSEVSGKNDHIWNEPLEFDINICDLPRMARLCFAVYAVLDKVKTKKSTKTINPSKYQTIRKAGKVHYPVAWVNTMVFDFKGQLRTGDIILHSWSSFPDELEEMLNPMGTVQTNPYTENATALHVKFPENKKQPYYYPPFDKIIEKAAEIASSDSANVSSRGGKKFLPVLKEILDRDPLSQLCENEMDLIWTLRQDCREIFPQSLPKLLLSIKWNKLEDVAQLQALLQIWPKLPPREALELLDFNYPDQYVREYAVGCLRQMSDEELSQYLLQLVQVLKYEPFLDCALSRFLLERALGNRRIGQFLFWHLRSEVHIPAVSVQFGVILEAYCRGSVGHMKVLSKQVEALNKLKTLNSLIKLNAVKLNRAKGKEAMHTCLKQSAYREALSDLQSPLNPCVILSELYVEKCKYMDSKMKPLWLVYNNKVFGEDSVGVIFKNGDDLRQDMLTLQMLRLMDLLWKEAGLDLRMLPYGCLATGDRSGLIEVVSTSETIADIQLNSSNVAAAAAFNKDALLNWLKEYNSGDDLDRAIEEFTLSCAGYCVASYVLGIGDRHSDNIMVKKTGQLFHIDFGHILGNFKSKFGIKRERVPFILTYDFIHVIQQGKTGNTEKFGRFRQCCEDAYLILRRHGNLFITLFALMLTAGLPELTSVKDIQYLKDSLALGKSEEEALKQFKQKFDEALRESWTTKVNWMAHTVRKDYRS
T1 sequence (P27986 whole entry partner, canonical isoform): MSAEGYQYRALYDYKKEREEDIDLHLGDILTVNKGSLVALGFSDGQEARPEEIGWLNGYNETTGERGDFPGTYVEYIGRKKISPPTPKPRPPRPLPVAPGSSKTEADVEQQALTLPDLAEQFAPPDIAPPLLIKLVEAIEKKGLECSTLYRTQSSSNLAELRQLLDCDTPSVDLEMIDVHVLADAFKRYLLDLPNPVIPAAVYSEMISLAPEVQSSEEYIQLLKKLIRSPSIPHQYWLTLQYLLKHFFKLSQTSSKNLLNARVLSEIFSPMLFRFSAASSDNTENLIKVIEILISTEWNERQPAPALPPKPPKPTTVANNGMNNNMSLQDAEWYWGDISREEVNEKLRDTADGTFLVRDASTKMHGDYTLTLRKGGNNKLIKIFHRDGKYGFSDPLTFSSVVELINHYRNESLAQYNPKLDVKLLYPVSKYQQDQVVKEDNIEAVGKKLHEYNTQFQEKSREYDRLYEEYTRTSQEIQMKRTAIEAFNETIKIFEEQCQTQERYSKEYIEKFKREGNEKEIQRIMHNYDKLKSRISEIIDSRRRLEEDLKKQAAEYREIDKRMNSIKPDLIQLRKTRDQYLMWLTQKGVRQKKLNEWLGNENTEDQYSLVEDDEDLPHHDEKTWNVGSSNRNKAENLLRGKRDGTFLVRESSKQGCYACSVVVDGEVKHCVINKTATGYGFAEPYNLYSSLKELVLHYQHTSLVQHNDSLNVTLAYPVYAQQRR
T2 sequence (O00329 whole entry, canonical isoform): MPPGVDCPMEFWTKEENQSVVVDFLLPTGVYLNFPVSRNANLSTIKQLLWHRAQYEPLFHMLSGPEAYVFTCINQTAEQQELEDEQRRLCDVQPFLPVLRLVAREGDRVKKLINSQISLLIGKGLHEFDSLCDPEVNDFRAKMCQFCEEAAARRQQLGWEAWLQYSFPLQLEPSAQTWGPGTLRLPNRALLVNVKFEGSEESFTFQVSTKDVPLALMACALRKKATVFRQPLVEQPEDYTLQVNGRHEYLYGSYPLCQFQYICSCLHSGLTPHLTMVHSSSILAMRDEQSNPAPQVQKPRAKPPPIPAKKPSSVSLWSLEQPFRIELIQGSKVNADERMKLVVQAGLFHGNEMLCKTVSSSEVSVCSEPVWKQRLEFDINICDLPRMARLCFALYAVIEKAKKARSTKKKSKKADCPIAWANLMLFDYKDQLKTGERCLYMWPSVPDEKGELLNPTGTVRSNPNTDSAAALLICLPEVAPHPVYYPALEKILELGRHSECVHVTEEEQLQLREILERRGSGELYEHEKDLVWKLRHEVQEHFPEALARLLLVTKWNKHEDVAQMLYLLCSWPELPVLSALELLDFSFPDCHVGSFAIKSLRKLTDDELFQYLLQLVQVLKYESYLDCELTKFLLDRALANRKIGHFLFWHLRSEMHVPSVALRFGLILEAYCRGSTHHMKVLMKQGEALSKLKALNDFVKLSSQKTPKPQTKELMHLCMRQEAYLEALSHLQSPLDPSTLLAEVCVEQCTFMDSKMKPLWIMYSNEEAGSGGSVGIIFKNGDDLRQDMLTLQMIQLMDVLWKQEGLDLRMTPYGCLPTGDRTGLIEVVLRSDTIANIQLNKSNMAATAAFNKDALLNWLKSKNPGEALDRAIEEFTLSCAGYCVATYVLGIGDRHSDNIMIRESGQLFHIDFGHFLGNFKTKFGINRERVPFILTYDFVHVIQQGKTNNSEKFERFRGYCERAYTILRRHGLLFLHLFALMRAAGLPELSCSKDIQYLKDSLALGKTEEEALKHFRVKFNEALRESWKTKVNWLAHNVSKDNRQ
T2 sequence (P27986 whole entry partner, canonical isoform): as the sequence (P27986 whole entry partner, canonical isoform) above
T3 sequence (P42336 whole entry, canonical isoform): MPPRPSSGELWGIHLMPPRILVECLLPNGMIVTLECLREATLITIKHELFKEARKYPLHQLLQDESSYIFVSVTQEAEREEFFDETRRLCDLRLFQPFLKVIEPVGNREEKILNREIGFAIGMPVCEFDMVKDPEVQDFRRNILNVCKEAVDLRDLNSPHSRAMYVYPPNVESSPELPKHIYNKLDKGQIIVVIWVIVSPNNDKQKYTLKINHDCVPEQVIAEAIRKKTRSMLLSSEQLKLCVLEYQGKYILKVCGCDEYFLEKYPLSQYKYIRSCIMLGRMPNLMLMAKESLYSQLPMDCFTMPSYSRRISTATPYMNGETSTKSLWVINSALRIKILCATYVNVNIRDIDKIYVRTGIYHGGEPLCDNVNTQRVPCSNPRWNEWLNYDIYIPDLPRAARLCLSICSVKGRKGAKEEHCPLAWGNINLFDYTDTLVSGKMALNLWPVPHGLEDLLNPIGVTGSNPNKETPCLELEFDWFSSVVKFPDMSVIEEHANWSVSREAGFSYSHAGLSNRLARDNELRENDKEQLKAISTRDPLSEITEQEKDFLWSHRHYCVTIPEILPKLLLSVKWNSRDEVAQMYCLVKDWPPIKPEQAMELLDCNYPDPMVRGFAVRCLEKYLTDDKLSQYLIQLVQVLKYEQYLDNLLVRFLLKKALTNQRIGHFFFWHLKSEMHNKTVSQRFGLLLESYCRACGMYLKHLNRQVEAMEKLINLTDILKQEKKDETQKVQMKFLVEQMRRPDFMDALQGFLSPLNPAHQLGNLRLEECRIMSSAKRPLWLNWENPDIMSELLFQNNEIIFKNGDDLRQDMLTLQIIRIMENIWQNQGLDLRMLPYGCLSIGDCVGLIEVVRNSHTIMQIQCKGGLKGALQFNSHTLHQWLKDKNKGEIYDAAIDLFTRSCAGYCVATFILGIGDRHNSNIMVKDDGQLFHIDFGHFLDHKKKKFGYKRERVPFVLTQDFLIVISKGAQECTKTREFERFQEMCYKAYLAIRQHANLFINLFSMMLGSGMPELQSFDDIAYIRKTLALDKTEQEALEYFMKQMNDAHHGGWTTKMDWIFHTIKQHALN
T3 sequence (P27986 whole entry partner, canonical isoform): as the sequence (P27986 whole entry partner, canonical isoform) above

`Cc1ccccc1-n1c(Cn2cnc3c(N)ncnc32)nc2cccc(C)c2c1=O` [IC87114] was tested, and the “protection from lethal challenge” value [1] was “protected animals from lethal challenge” and the “viral replication in A549 lung epithelial cells” value (influenza virus) was “decreased”.

With `Cc1ccccc1-c1nc2ncccc2cc1Cn1cnc2c(N)ncnc21` [compound 7b, 9-((2-(2-methylphenyl)-1,8-naphthyridin-3-yl)methyl)-9H-purin-6-amine] the IC50 (PI3K p110β) was > 100 µM, the IC50 (PI3K p110δ) was 1.3 µM and the IC50 (PI3K p110α) was > 100 µM. For the same molecule, the IC50 (PI3K p110γ) was 40 µM.
